# Experiment: Water solubility / water-dispersing ability
# Type: physicochemical
# Conditions: dispersed in water, bottle A versus bottle B, visual
structure (smiles),measurement,value
"Oc1ccc(C=Cc2cc(O)cc(O)c2)cc1 [known 99% resveratrol, resveratrol]",Water-dispersing ability (FIG. 1),insoluble in water
